# Where “and” joins values, the source holds several entries; their conditions need not be identical. Identical values can stand only once. Like-named read-outs stand apart in the source and are kept apart here.
# Tests used:
# dopamine (D) transporter = dopamine (D) transporter (Homo sapiens, UniProt Q01959); assay: biochemical
# α1B = α1B (Homo sapiens, UniProt P35368); assay: Functional antagonism, G-protein-dependent signal transduction (Table 69)
# [1] = target: norepinephrine (NE) transporter (Homo sapiens, UniProt P23975); assay: Equilibrium binding to transporters (FIG. 19); details: Norepinephrine TP (transporter)
# Sigma 1 = Sigma 1 (Homo sapiens, UniProt Q99720); assay: Equilibrium binding (Table 69)
# histamine H1 receptor [2] = target: T1, histamine H1 receptor (Homo sapiens, UniProt P35367); assay: G-protein-independent signal transduction, β-arrestin signaling; format: cell-based; details: for IC50: H1, β-arrestin signaling, read-out: IC50, functional antagonist
# T1 construct: expressed in transfected cells
# 5-HT7 = target: T2, 5-HT7 (Homo sapiens, UniProt P34969); assay: Equilibrium receptor binding, recombinant human receptor
# T2 construct: expressed in transfected cells
# 5-HT2C receptor = target: T3, 5-HT2C receptor (Homo sapiens, UniProt P28335); assay: as above
# T3 construct: expressed in transfected cells
# T3 sequence (P28335 33-458): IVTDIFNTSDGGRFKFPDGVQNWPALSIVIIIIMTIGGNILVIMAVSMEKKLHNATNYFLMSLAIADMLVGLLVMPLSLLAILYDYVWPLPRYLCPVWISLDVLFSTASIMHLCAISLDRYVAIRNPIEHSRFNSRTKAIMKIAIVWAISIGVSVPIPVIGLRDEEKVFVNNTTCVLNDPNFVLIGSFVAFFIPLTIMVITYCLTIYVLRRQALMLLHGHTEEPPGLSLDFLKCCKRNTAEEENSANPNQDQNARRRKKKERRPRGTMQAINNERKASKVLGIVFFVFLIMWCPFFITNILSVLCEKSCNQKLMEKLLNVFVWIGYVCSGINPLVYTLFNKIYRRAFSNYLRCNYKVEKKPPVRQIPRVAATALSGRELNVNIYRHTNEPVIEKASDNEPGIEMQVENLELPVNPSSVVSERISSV
# [3] = target: T4, adrenergic α1B receptor (Alpha1B) (Homo sapiens, UniProt P35368); assay: as above
# T4 construct: expressed in transfected cells
# dopamine D1 receptor = target: T5, dopamine D1 receptor (Homo sapiens, UniProt P21728); assay: G-protein-dependent signal transduction (Ca2+ mobilization, cAMP production or inositol triphosphate turnover); format: cell-based; details: for IC50: read-out: IC50 (nM) (Antagonist)
# T5 construct: expressed in transfected cells
# Sigma 2 = Sigma 2 (Homo sapiens, UniProt Q5BJF2); assay: Equilibrium binding (Table 69)
# 5-HT1A receptor = target: T6, 5-HT1A receptor (Homo sapiens, UniProt P08908); assay: G-protein-dependent signal transduction (functional agonism); format: cell-based
# T6 construct: expressed in transfected cells
# T6 sequence (P08908 1-422): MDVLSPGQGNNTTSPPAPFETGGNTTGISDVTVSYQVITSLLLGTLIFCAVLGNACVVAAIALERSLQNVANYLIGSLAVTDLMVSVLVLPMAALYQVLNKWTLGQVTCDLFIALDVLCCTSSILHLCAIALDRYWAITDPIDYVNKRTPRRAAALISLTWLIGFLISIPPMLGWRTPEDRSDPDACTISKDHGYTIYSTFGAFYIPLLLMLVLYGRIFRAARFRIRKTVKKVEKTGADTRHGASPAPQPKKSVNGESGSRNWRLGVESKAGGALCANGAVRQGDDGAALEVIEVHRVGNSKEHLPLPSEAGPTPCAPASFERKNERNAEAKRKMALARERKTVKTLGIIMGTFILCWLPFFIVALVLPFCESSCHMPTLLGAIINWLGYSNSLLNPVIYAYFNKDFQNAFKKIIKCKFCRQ
# Procedure: Quantitation was based on peak area ratio of the analytes versus their stable labeled internal standards. A weighted (1/C2), linear regression was performed to determine the concentration of the analytes. All regressions and figures presented in this validation report were generated by MDS Sciex Analyst version 1.4.2 and Thermo Electron Corporation Watson LIMS software, version 7.0.0.01b. […] Select receptors were analyzed in ligand-induced intracellular calcium mobilization.
# histamine H1 receptor [4] = target: T1, histamine H1 receptor; assay: G-protein-dependent signal transduction, intracellular Ca2+ mobilization; format: cell-based; details: for IC50: H1, Ca2+ mobilization, read-out: IC50, functional antagonist
# D5 = D5 (Homo sapiens, UniProt P21918); assay: Equilibrium receptor binding, recombinant human receptor
# adrenergic α1A receptor = target: T7, adrenergic α1A receptor (Homo sapiens, UniProt P35348); assay: G-protein-dependent signal transduction, intracellular Ca2+ mobilization; format: cell-based; details: for IC50: α1A, Ca2+ mobilization, read-out: IC50, functional antagonist
# T7 construct: expressed in transfected cells
# T7 sequence (P35348 1-466): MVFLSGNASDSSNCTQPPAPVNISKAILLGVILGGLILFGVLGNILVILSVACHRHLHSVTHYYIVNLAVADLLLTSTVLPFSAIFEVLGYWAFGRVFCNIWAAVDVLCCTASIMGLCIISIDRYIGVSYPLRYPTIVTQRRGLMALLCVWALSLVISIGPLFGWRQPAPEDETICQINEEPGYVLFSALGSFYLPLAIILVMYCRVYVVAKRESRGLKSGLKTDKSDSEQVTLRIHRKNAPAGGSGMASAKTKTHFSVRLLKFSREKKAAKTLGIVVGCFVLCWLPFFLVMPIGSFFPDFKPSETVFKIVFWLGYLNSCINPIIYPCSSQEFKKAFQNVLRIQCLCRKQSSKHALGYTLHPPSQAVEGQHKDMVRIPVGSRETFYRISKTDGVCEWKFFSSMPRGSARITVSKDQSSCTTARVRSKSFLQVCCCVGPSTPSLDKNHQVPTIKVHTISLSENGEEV
# 5-HT2C = target: T8, 5-HT2C (Homo sapiens, UniProt P28335); assay: G-protein-dependent signal transduction, turnover of inositol triphosphate (IP); format: cell-based; details: read-out: IC50 (nM) (Antagonist)
# T8 construct: expressed in transfected cells
# D2S = target: T9, D2S (Homo sapiens, UniProt P14416); assay: Equilibrium receptor binding, recombinant human receptor
# T9 construct: expressed in transfected cells
# [5] = read-out: IC50 (nM) (Antagonist)
# [6] = read-out: EC50, functional agonist
# T1 sequence (P35367 whole entry): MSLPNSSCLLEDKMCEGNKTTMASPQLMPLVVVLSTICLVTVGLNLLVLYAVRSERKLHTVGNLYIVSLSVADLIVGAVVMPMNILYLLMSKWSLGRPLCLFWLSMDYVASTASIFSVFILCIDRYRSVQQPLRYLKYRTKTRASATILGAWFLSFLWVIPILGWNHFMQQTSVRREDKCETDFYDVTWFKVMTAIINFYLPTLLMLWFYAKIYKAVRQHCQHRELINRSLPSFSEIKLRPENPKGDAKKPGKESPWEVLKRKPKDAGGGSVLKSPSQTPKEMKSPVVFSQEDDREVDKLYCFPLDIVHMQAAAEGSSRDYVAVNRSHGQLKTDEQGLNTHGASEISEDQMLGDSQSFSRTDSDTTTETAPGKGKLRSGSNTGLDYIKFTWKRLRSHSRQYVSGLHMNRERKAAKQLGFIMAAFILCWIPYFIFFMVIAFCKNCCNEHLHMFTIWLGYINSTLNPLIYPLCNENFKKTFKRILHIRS
# T5 sequence (P21728 whole entry): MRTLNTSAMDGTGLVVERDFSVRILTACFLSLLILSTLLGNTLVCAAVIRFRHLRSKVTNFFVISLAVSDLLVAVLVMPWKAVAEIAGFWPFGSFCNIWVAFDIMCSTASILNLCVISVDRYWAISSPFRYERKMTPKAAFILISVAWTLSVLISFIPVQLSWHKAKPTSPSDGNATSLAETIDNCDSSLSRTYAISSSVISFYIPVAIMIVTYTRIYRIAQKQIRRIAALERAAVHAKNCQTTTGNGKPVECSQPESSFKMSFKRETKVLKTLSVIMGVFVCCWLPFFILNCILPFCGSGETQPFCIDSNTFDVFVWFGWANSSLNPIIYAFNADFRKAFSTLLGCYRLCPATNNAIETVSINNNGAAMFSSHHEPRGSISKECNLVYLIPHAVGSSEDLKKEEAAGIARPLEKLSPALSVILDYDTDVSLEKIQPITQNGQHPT
# Sequence of α1B (P35368 whole entry): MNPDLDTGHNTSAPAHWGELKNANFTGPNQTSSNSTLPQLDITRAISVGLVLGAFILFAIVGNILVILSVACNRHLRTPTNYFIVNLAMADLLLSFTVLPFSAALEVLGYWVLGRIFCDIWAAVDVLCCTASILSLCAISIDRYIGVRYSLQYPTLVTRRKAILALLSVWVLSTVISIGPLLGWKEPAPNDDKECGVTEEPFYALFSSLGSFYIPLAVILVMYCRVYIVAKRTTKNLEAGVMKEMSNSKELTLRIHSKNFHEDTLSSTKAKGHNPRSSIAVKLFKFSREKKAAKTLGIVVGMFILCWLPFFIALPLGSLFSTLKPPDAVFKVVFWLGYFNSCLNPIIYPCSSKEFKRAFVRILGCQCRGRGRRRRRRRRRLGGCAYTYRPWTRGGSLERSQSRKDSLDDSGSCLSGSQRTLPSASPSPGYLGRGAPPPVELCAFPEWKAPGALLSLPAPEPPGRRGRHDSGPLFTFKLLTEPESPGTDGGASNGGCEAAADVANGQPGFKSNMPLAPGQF
# T4 sequence (P35368 whole entry): as above
# T2 sequence (P34969 whole entry): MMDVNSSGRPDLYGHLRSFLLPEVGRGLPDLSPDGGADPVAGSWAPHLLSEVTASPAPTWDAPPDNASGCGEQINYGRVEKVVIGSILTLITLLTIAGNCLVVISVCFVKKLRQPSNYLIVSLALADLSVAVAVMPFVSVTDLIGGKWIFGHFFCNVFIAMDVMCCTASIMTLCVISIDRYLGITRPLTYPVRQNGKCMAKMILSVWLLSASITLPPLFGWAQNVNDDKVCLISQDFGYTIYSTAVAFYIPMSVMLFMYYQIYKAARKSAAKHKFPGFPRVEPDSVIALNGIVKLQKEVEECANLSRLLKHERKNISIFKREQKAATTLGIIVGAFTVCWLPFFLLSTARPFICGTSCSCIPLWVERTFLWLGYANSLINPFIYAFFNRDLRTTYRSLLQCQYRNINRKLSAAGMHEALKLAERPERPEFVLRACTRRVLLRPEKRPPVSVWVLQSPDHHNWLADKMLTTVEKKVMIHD
# Sequence of dopamine (D) transporter (Q01959 whole entry): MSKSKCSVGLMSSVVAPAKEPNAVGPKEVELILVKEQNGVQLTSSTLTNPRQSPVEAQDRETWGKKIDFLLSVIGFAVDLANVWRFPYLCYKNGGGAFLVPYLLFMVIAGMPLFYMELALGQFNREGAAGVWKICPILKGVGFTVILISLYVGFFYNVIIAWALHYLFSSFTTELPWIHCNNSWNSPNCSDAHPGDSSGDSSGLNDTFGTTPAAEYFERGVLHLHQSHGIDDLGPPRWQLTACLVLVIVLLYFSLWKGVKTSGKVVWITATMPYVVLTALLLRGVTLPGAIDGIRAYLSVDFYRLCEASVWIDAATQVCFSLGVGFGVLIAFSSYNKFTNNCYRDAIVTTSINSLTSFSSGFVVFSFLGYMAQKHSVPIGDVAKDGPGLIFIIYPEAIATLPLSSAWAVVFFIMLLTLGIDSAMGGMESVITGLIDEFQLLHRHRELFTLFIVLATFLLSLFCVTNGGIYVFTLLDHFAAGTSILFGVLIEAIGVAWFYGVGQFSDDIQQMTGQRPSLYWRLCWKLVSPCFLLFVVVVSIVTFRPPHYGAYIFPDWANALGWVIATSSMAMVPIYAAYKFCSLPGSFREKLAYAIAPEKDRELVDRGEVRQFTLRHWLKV
# Sequence of norepinephrine (NE) transporter (P23975 whole entry): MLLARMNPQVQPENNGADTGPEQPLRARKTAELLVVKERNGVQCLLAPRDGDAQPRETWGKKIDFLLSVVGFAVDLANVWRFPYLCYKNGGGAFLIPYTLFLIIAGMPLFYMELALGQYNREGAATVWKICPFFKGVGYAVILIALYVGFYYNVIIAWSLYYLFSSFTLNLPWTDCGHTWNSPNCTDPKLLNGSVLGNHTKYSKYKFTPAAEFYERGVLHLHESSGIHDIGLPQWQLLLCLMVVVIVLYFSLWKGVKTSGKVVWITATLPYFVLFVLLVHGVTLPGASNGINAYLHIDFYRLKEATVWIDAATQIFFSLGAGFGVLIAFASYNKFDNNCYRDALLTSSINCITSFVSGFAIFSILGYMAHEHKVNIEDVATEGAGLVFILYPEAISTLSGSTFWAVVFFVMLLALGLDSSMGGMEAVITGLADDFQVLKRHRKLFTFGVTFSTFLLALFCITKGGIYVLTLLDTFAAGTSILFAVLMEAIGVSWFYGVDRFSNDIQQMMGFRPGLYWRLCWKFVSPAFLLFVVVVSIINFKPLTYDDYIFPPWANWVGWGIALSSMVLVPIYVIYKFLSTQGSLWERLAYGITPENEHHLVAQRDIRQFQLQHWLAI
# T9 sequence (P14416 1-414 isoform P14416-2): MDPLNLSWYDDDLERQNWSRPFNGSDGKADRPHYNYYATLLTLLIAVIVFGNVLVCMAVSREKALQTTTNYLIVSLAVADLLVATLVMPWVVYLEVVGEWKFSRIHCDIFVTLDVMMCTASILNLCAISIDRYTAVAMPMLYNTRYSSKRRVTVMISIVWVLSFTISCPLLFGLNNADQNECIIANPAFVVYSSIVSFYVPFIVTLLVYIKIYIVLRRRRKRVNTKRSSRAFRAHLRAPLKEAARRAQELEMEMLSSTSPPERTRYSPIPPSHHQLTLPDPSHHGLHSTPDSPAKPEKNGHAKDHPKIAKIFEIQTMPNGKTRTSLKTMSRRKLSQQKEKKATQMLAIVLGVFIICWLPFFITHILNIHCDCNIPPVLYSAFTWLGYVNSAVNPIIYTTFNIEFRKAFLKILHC
# Sequence of D5 (P21918 whole entry): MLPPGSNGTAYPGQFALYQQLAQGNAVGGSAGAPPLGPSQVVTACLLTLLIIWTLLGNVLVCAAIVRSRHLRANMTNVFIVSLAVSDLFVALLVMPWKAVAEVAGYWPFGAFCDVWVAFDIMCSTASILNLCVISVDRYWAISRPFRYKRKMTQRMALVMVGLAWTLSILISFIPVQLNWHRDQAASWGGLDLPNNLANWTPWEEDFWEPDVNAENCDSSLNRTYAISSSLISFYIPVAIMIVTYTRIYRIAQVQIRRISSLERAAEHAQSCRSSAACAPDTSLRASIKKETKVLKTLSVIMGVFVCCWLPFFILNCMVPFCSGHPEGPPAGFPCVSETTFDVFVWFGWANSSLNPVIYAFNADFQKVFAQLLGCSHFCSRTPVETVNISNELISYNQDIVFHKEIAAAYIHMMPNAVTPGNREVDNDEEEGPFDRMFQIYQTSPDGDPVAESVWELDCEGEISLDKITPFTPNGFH
# Sequence of Sigma 2 (Q5BJF2 whole entry): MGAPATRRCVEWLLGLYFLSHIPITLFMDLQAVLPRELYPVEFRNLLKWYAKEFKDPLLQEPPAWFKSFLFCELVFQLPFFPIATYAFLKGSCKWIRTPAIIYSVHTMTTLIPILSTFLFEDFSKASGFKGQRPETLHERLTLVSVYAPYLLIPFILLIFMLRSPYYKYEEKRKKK
# Sequence of Sigma 1 (Q99720 whole entry): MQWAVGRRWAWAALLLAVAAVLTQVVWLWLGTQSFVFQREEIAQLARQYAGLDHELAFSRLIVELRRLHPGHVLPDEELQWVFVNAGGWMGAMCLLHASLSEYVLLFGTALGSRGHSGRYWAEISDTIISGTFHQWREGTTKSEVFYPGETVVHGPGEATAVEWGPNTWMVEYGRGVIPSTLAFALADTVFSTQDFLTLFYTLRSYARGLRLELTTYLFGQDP
Compound,Ki (dopamine (D) transporter),IC50 (α1B),Ki [1],IC50 (histamine H1 receptor [2]),Ki (5-HT7),Ki (5-HT2C receptor),Ki [3],IC50 (dopamine D1 receptor),EC50 (5-HT1A receptor; [6]),IC50 (histamine H1 receptor [4]),Ki (D5),IC50 (adrenergic α1A receptor),IC50 (5-HT2C),Ki (D2S),other results
"CN(C)CCC=C1c2ccccc2C=Cc2ccccc21 [cyclobenzaprine, 3-(5H-dibenzo[a,d]cyclohepten-5-ylidene)-N,N-dimethyl-1-propanamine]",> 10000 nM,530 nM,35 nM,2.7 nM,67 nM,5.2 nM and 43 nM,9.1 nM,65 nM,5300 nM,5.2 nM,60 nM,4.9 nM,770 nM,120 nM,IC50 (Sigma 1; [5]): 790 nM; IC50 (Sigma 2; [5]): 2000 nM; EC50 (5-HT1A receptor; read-out: EC50 (nM) (Agonist)): 3200 nM
"CNCCC=C1c2ccccc2C=Cc2ccccc21 [norcyclobenzaprine, 3-(5H-dibenzo[a,d]cyclohepten-5-ylidene)-N-methyl-1-propanamine]",> 10000 nM,790 nM,2.6 nM,6.1 nM,140 nM,43 nM,11 nM,300 nM,3200 nM,16 nM,280 nM,16 nM,2000 nM,410 nM,Ki (Sigma 1): 120 nM; Four parameter Hill slope (or fit slope) ratio; β-arrestin signaling (histamine H1 receptor [2]; H1): 1.09; Hill plot ratio (Hill slope) (5-HT2C receptor; equilibrium binding): 1.40; Four parameter Hill slope (or fit slope) ratio; Ca2+ signaling (dopamine D1 receptor): 0.98; Ki (Sigma 2): 480 nM; Four parameter Hill slope (or fit slope) ratio; Ca2+ signaling (5-HT1A receptor): −0.79; IC50 (5-HT1A receptor; [5]): 5300 nM; Four parameter Hill slope (or fit slope) ratio; Ca2+ signaling (histamine H1 receptor [4]; H1): 0.79; Four parameter Hill slope (or fit slope) ratio; Ca2+ signaling (adrenergic α1A receptor; α-1A): 2.27
